Test results reported in the OligoGym collection.
These antisense oligonucleotides have a phosphorothioate backbone; sugars and methylation of C are not fully specified.

Target: GNA12
Conditions: ASO
Also: test concentration or dose not given here.

Sequence | remaining target (mRNA or protein) (fraction of control)
AAGATGTTCATGGACTCC | 0.33
AAGTCATGCTCCACAATT | 0.64
AAGTTGTCCAGGAAGTAC | 0.44
AATTCAGCTGGCCGATCC | 0.59
ACAAGAACCCTTGAGCCC | 0.74
ACGTGGACTTGCCGCTCT | 0.32
ACTAGGAAAGTAATTCAG | 0.47
ACTCGCTTCTCCGGCTGA | 0.85
ACTGCCAAGGAATGCCAA | ≥ 1
AGCAGGCAGCGGCTGAGG | 0.93
AGCATGATGTCCTTCAGG | 0.29
AGCCCTTGAGGATGTTGT | 0.94
AGGATGTTGTCGAAGATG | 0.77
AGTGCTTCTTGATGCTCA | 0.62
ATGATGGAGACGTTGAAG | ≥ 1
CACAATTCCCTTGGTGGC | ≥ 1

Sequence | remaining target (mRNA or protein) (fraction of control)
CACATCCACCATCTTAAA | ≥ 1
CACCAGGAGGTCCATCTT | 0.75
CAGAATCCCTCCAGAGTG | 0.37
CAGCCGGTTGGTGCGCCT | 0.25
CATGAACAGGATGGACGT | 0.5
CATGGAACACGAAGCGGA | 0.57
CCAGCAGCGCGTCGATGT | 0.29
CCATGCTTCTCATTTTCA | 0.49
CCCCGCCTTGTTCTCGAA | 0.85
CCCTGATGCCAGAATCCC | 0.39
CCGATCCGGTCCAAGTTG | 0.38
CCGCTGGCCGCCCACATC | 0.47
CCGTCGAAGCACTGGAAC | 0.8
CCTGAAGTCCGGGAAGTG | 0.85
CCTGTCGAAGCACTGGAC | 0.34
CGAAGGCCATCAGGAACA | ≥ 1

Target: GNAS
Conditions: ASO

Sequence | remaining target (mRNA or protein) (fraction of control)
CACGGCGGATGTTCTCAGTG | 0.44
CAGGTGAAATGAGGGTAGCA | ≥ 1
CATTTGTTTCTTTTATTTCA | 0.65
CATTTTATTTGTTTGCTGCT | 0.65
CGCAGGTGAAATGAGGGTAG | 0.35
CGGCGGATGTTCTCAGTGTC | 0.32
CTGAATGATGTCACGGCAGT | 0.63
CTGCTGCTGTTTTATTTATT | 0.63
CTTTGGTTGCCTTCTCACTG | 0.55
CTTTTATTTCATTTTATTTG | 0.97
GAATGATGTCACGGCAGTCG | 0.39
GATGTTCTCAGTGTCCACAG | 0.45
GCAGGTGAAATGAGGGTAGC | ≥ 1
GCGCAGGTGAAATGAGGGTA | 0.9
GCGCTGAATGATGTCACGGC | 0.38
GCTGCTGCTGTTTTATTTAT | 0.43
GCTGCTGTTTTATTTATTTT | 0.75
GGGTTCCCTTCTTAGAGCAG | 0.52
GGGTTTCGCAAAATCACTCG | 0.61
GGTTCCCTTCTTAGAGCAGC | ≥ 1
GGTTGCCTTCTCACTGTCTC | 0.58
GGTTTCGCAAAATCACTCGG | 0.41

Sequence | remaining target (mRNA or protein) (fraction of control)
GTGAAATGAGGGTAGCAGTA | ≥ 1
GTGAGAGGGAACTTTTGTGG | 0.72
GTTGCCTTCTCACTGTCTCC | 0.75
GTTTCGCAAAATCACTCGGG | 0.5
GTTTCTTTTATTTCATTTTA | ≥ 1
GTTTGCTGCTGCTGTTTTAT | 0.53
TACTGAAAGTGAGAGGGAAC | 0.65
TATTTATTTCATTTGTTTCT | ≥ 1
TATTTCATTTGTTTATTTTA | ≥ 1
TATTTGTTTGCTGCTGCTGT | ≥ 1
TCATTTGTTTCTTTTATTTC | 0.85
TCATTTTATTTGTTTGCTGC | 0.75
TCTTTTATTTCATTTTATTT | 0.84
TGAATGATGTCACGGCAGTC | 0.69
TGAGAGGGAACTTTTGTGGC | 0.72
TGCCTTCTCACTGTCTCCAT | 0.75
TGCGCTGAATGATGTCACGG | 0.41
TGCTGCTGCTGTTTTATTTA | 0.62
TGCTGCTGTTTTATTTATTT | ≥ 1
TGGTTGCCTTCTCACTGTCT | 0.62
TGTTCTCAGTGTCCACAGCG | 0.39
TGTTTCTTTTATTTCATTTT | ≥ 1

Sequence | remaining target (mRNA or protein) (fraction of control)
TGTTTGCTGCTGCTGTTTTA | 0.96
TTACTGAAAGTGAGAGGGAA | ≥ 1
TTATTTCATTTGTTTCTTTT | 0.64
TTATTTCATTTTATTTGTTT | 0.92
TTCATTTGTTTCTTTTATTT | ≥ 1
TTCATTTTATTTGTTTGCTG | 0.79
TTCTTTTATTTCATTTTATT | ≥ 1
TTGCCTTCTCACTGTCTCCA | 0.56
TTGCTGCTGCTGTTTTATTT | ≥ 1
TTGTTTCTTTTATTTCATTT | ≥ 1
TTGTTTGCTGCTGCTGTTTT | 0.45
TTTATTTCATTTGTTTCTTT | 0.93
TTTATTTCATTTTATTTGTT | ≥ 1
TTTCATTTGTTTCTTTTATT | ≥ 1
TTTCATTTTATTTGTTTGCT | ≥ 1
TTTCTTTTATTTCATTTTAT | ≥ 1
TTTGCTGCTGCTGTTTTATT | 0.66
TTTGGAACATCTAAGCAAGC | 0.97
TTTGTTTCTTTTATTTCATT | 0.83
TTTGTTTGCTGCTGCTGTTT | 0.96
TTTTACTGAAAGTGAGAGGG | 0.9
TTTTATTTCATTTTATTTGT | 0.91
